From PubChem BioAssay AID330 (DTP/NCI, 2004)
Where “and” joins values, the source holds several entries; their conditions need not be identical. Identical values can stand only once. Inconclusive results and toxic doses are left out. Rule for the calls: active = survival T/C of 150% or more; inactive = T/C below 125% in these data.

Test system: P388 leukemia ip, CD2F1 mice, survival T/C
Experiment: NCI In Vivo Anticancer Drug Screen. Data for tumor model P388 Leukemia (intraperitoneal) in CD2F1 (CDF1) mice
Conditions: endpoint: median survival time, higher = longer survival
Outline: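 Mice carrying the transplanted tumor received test compound or vehicle. Survival was recorded in each group, and the value is the treated-group measurement divided by that of the vehicle-treated control group.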

[1] = dose: 100.0 mg/kg/injection, schedule: Q04DX003 (ip), vehicle: saline
[2] = dose: 200.0 mg/kg/injection, schedule: Q04DX003 (ip), vehicle: saline
[3] = dose: 400.0 mg/kg/injection, schedule: Q04DX003 (ip), vehicle: saline
[4] = dose: 50.0 mg/kg/injection, schedule: Q01DX005 (ip), vehicle: saline with Tween-80
[5] = dose: 60.0 mg/kg/injection, schedule: Q01DX005 (ip), vehicle: saline with Tween-80
[6] = dose: 120.0 mg/kg/injection, schedule: Q01DX005 (ip), vehicle: saline with Tween-80
[7] = dose: 240.0 mg/kg/injection, schedule: Q01DX005 (ip), vehicle: saline with Tween-80

Measured: T/C

Cc1cc(C)c[n+](-c2nc3c([O-])n(C)c(=O)n(C)c-3n2)c1
inactive: [1] 94 % of control | [2] 98 % of control | [3] 103 % of control

CCCCCCCCCCCCC1(O)OC(=O)C(C)=C1C (stereo not given)
inactive: dose: 12.5 mg/kg/injection, schedule: Q04DX003 (ip), vehicle: saline with Tween-80 108 % of control | dose: 25.0 mg/kg/injection, schedule: Q04DX003 (ip), vehicle: saline with Tween-80 102 % of control | dose: 50.0 mg/kg/injection, schedule: Q04DX003 (ip), vehicle: saline with Tween-80 106 % of control

Cn1c(N(CCN2CCOCC2)C(=O)/C=C\c2ccccc2)cc(=O)n(C)c1=O
inactive: [4] 105 % of control | dose: 50.0 mg/kg/injection, schedule: Q01DX005 (ip), vehicle: water 103 % of control | dose: 100.0 mg/kg/injection, schedule: Q01DX005 (ip), vehicle: saline with Tween-80 100 % of control | dose: 100.0 mg/kg/injection, schedule: Q01DX005 (ip), vehicle: water 112 % of control | dose: 200.0 mg/kg/injection, schedule: Q01DX005 (ip), vehicle: saline with Tween-80 97 % of control | dose: 200.0 mg/kg/injection, schedule: Q01DX005 (ip), vehicle: water 109 % of control

Cc1cc(Cl)c(C)cc1Cl
inactive: dose: 50.0 mg/kg/injection, schedule: Q01DX009 (ip), vehicle: saline with Tween-80 91 % of control | dose: 100.0 mg/kg/injection, schedule: Q01DX009 (ip), vehicle: saline with Tween-80 95 % of control | dose: 100.0 mg/kg/injection, schedule: Q04DX003 (ip), vehicle: saline with Tween-80 105 % of control | dose: 200.0 mg/kg/injection, schedule: Q01DX009 (ip), vehicle: saline with Tween-80 95 % of control | dose: 200.0 mg/kg/injection, schedule: Q04DX003 (ip), vehicle: saline with Tween-80 110 % of control | dose: 400.0 mg/kg/injection, schedule: Q04DX003 (ip), vehicle: saline with Tween-80 110 % of control

Nc1nc(N)c2[nH]c(CNc3ccc(C(=O)O)cc3)nc2n1
inactive: [5] 89 % of control | [6] 89 % of control | [7] 86 % of control

Clc1ccc(-c2csc3cccc[n+]23)cc1
inactive: dose: 12.5 mg/kg/injection, schedule: Q01DX009 (ip), vehicle: Klucel (hydroxypropylcellulose) (HPC) 103 % of control | dose: 25.0 mg/kg/injection, schedule: Q01DX009 (ip), vehicle: Klucel (hydroxypropylcellulose) (HPC) 100 % of control | dose: 50.0 mg/kg/injection, schedule: Q01DX009 (ip), vehicle: Klucel (hydroxypropylcellulose) (HPC) 103 % of control

[N-]=[N+]=Nc1ccccc1C(=O)NCCCNC(=O)c1ccccc1N=[N+]=[N-]
inactive: dose: 12.5 mg/kg/injection, schedule: Q01DX005 (ip), vehicle: saline with Tween-80 91 % of control | dose: 25.0 mg/kg/injection, schedule: Q01DX005 (ip), vehicle: saline with Tween-80 87 % of control | [4] 86 % of control

Cc1c2c(cc3c4ccccc4n(C)c13)C(=O)c1ccccc1C2=O
inactive: dose: 100.0 mg/kg/injection, schedule: Q04DX002 (ip), vehicle: saline with Tween-80 90 % of control | dose: 200.0 mg/kg/injection, schedule: Q04DX002 (ip), vehicle: saline with Tween-80 87 % of control | dose: 400.0 mg/kg/injection, schedule: Q04DX002 (ip), vehicle: saline with Tween-80 92 % of control

O=NN(CCCl)C(=O)OCC(Cl)(Cl)Cl
inactive: dose: 3.12 mg/kg/injection, schedule: Q01DX001 (ip), vehicle: saline with Tween-80 104 % of control | dose: 6.25 mg/kg/injection, schedule: Q01DX001 (ip), vehicle: saline with Tween-80 101 % of control | dose: 12.5 mg/kg/injection, schedule: Q01DX001 (ip), vehicle: saline with Tween-80 113 % of control | dose: 25.0 mg/kg/injection, schedule: Q01DX001 (ip), vehicle: saline with Tween-80 113 % of control and 117 % of control and 119 % of control | dose: 50.0 mg/kg/injection, schedule: Q01DX001 (ip), vehicle: saline with Tween-80 105 % of control and 120 % of control and 123 % of control | dose: 100.0 mg/kg/injection, schedule: Q01DX001 (ip), vehicle: saline with Tween-80 88 % of control

Nc1ncnc2c1c(-c1ccccc1)cn2-c1ccccc1
inactive: [5] 103 % of control | [6] 104 % of control | [7] 98 % of control

COc1cccc(C(Nc2nncs2)Nc2nncs2)c1[N+](=O)[O-]
inactive: [5] 98 % of control | [6] 98 % of control | [7] 101 % of control

CCN(CC)CCCNC(C)=O
inactive: [1] 100 % of control | [2] 91 % of control | [3] 95 % of control
